Source: patent USRE39591E1, “6-O-substituted ketolides having antibacterial activity” (Abbott Laboratories, priority 1996, dated 2007)
In brackets after ≈: the same amount, converted by molar mass.

Test system: up to 32 different microorganisms
Test: in vitro antibacterial activity (MIC), agar dilution on Brain Heart Infusion (BHI) agar with Steers replicator
Type: cell-based
Conditions: unit assumed
Experimental: Representative compounds of the present invention were assayed in vitro for antibacterial activity as follows: Twelve petri dishes containing successive aqueous dilutions of the test compound mixed with 10 mL of sterilized Brain Heart Infusion (BHI) agar (Difco 0148-01-5) were prepared. Each plate was inoculated with 1:100 (or 1:10 for slow-growing strains, such as Micrococcus and Streptococcus) dilutions of up to 32 different microorganisms, using a Steers replicator block. The inoculated plates were incubated at 35°-37° C. for 20 to 24 hours. In addition, a control plate, using BHI agar containing no test compound, was prepared and incubated at the beginning and end of each test.
An additional plate containing a compound having known susceptibility patterns for the organisms being tested and belonging to the same antibiotic class as the test compound was also prepared and incubated as a further control, as well as to provide test-to-test comparability. Erythromycin A was used for this purpose.
After incubation, each plate was visually inspected. The minimum inhibitory concentration (MIC) was defined as the lowest concentration of drug yielding no growth, a slight haze, or sparsely isolated colonies on the inoculum spot as compared to the growth control.

SMILES: CCC1OC(=O)C(C)C(=O)C(C)C(OC2OC(C)CC(N(C)C)C2O)C(C)(OCC=Cc2ccc3nccnc3c2)CC(C)C(=O)C(C)C2NC(=O)OC12C (stereo not shown) [Example 207, R is —CH2CH═CH-(6-quinoxalinyl)]
- MIC (organism code AA): 0.1 µg/mL (≈ 0.13 µM)
- MIC (organism code BB): 0.1 µg/mL (≈ 0.13 µM)
- MIC (organism code CC): > 100 µg/mL
- MIC (organism code DD): 0.1 µg/mL (≈ 0.13 µM)
- MIC (organism code EE): 0.1 µg/mL (≈ 0.13 µM)
- MIC (organism code FF): 0.1 µg/mL (≈ 0.13 µM)
- MIC (organism code GG): > 100 µg/mL
- MIC (organism code HH): 0.1 µg/mL (≈ 0.13 µM)
- MIC (organism code II): 0.02 µg/mL (≈ 0.0261 µM)
- MIC (organism code JJ): ≤ 0.005 µg/mL
- MIC (organism code KK): ≤ 0.005 µg/mL
- MIC (organism code LL): 0.01 µg/mL (≈ 0.013 µM)
- MIC (organism code MM): 1.56 µg/mL (≈ 2.03 µM)
- MIC (organism code NN): 0.2 µg/mL (≈ 0.261 µM)
- MIC (organism code OO): 0.01 µg/mL (≈ 0.013 µM)
- MIC (organism code PP): 0.1 µg/mL (≈ 0.13 µM)
- MIC (organism code QQ): 25 µg/mL (≈ 32.6 µM)
- MIC (organism code RR): 0.2 µg/mL (≈ 0.261 µM)
- MIC (organism code SS): 50 µg/mL (≈ 65.2 µM)
- MIC (organism code TT): > 100 µg/mL
- MIC (organism code UU): 0.39 µg/mL (≈ 0.509 µM)
- MIC (organism code VV): 0.02 µg/mL (≈ 0.0261 µM)
- MIC (organism code WW): 2 µg/mL (≈ 2.61 µM)
- MIC (organism code XX): 0.015 µg/mL (≈ 0.0196 µM)
- MIC (organism code YY): 0.015 µg/mL (≈ 0.0196 µM)
- MIC (organism code ZZ): 64 µg/mL (≈ 83.4 µM)
- MIC (organism code ZZA): 0.5 µg/mL (≈ 0.652 µM)

SMILES: CCC1OC(=O)C(C)C(=O)C(C)C(OC2OC(C)CC(N(C)C)C2O)C(C)(OCC(O)c2ccccc2)CC(C)C(=O)C(C)C2NC(=O)OC12C (single isomer, unassigned) [Example 261B]
- MIC (organism code AA): 3.1 µg/mL (≈ 4.31 µM)
- MIC (organism code BB): 3.1 µg/mL (≈ 4.31 µM)
- MIC (organism code CC): > 100 µg/mL
- MIC (organism code DD): 6.2 µg/mL (≈ 8.62 µM)
- MIC (organism code EE): 3.1 µg/mL (≈ 4.31 µM)
- MIC (organism code FF): 3.1 µg/mL (≈ 4.31 µM)
- MIC (organism code GG): > 100 µg/mL
- MIC (organism code HH): 6.2 µg/mL (≈ 8.62 µM)
- MIC (organism code II): 0.78 µg/mL (≈ 1.09 µM)
- MIC (organism code JJ): 0.39 µg/mL (≈ 0.543 µM)
- MIC (organism code KK): 0.39 µg/mL (≈ 0.543 µM)
- MIC (organism code LL): 0.39 µg/mL (≈ 0.543 µM)
- MIC (organism code MM): > 100 µg/mL
- MIC (organism code NN): 0.78 µg/mL (≈ 1.09 µM)
- MIC (organism code OO): 0.39 µg/mL (≈ 0.543 µM)
- MIC (organism code PP): 1.56 µg/mL (≈ 2.17 µM)
- MIC (organism code QQ): > 100 µg/mL
- MIC (organism code RR): 6.2 µg/mL (≈ 8.62 µM)
- MIC (organism code SS): > 100 µg/mL
- MIC (organism code TT): > 100 µg/mL
- MIC (organism code UU): 25 µg/mL (≈ 34.8 µM)
- MIC (organism code VV): 6.2 µg/mL (≈ 8.62 µM)
- MIC (organism code WW): 32 µg/mL (≈ 44.5 µM)
- MIC (organism code XX): 0.5 µg/mL (≈ 0.696 µM)
- MIC (organism code YY): 0.5 µg/mL (≈ 0.696 µM)
- MIC (organism code ZZ): > 128 µg/mL
- MIC (organism code ZZA): 1 µg/mL (≈ 1.39 µM)

SMILES: CCC1OC(=O)C(C)C(=O)C(C)C(OC2OC(C)CC(N(C)C)C2O)C(C)(OCCCc2cnc3ccccc3c2)CC(C)C(=O)C(C)C2NC(=O)OC12C (stereo not shown) [Example 242, Compound of Formula (IX): L is CO, T is NH, R is —CH2CH2CH2(3-quinolyl)]
- MIC (organism code AA): 0.2 µg/mL
- MIC (organism code CC): > 100 µg/mL
- MIC (organism code DD): 0.2 µg/mL
- MIC (organism code EE): 0.2 µg/mL
- MIC (organism code FF): 0.2 µg/mL
- MIC (organism code GG): > 100 µg/mL
- MIC (organism code HH): 0.39 µg/mL
- MIC (organism code II): 0.1 µg/mL
- MIC (organism code JJ): 0.02 µg/mL
- MIC (organism code KK): 0.05 µg/mL
- MIC (organism code LL): 0.01 µg/mL
- MIC (organism code MM): > 100 µg/mL
- MIC (organism code NN): 0.2 µg/mL
- MIC (organism code OO): 0.05 µg/mL
- MIC (organism code PP): 0.39 µg/mL
- MIC (organism code QQ): > 100 µg/mL
- MIC (organism code RR): 0.78 µg/mL
- MIC (organism code SS): > 100 µg/mL
- MIC (organism code TT): > 100 µg/mL
- MIC (organism code UU): 0.78 µg/mL
- MIC (organism code VV): 0.39 µg/mL
- MIC (organism code WW): 8 µg/mL
- MIC (organism code XX): 0.03 µg/mL
- MIC (organism code YY): 0.03 µg/mL
- MIC (organism code ZZ): > 128 µg/mL
- MIC (organism code ZZA): 0.25 µg/mL

SMILES: CCC1OC(=O)C(C)C(=O)C(C)C(OC2OC(C)CC(N(C)C)C2O)C(C)(OCC=Cc2cnc3ccc(OC)cc3c2)CC(C)C(=O)C(C)C2NC(=O)OC12C (stereo not shown) [Example 209, R is —CH2CH═CH-(6-methoxy-3-quinolyl)]
- MIC (organism code AA): 0.05 µg/mL (≈ 0.0628 µM)
- MIC (organism code CC): > 100 µg/mL
- MIC (organism code DD): 0.1 µg/mL (≈ 0.126 µM)
- MIC (organism code EE): 0.1 µg/mL (≈ 0.126 µM)
- MIC (organism code FF): 0.1 µg/mL (≈ 0.126 µM)
- MIC (organism code GG): > 100 µg/mL
- MIC (organism code HH): 0.1 µg/mL (≈ 0.126 µM)
- MIC (organism code II): 0.02 µg/mL (≈ 0.0251 µM)
- MIC (organism code JJ): 0.01 µg/mL (≈ 0.0126 µM)
- MIC (organism code KK): 0.01 µg/mL (≈ 0.0126 µM)
- MIC (organism code LL): 0.01 µg/mL (≈ 0.0126 µM)
- MIC (organism code MM): 3.1 µg/mL (≈ 3.89 µM)
- MIC (organism code NN): 0.1 µg/mL (≈ 0.126 µM)
- MIC (organism code OO): 0.01 µg/mL (≈ 0.0126 µM)
- MIC (organism code PP): 0.2 µg/mL (≈ 0.251 µM)
- MIC (organism code QQ): 100 µg/mL (≈ 126 µM)
- MIC (organism code RR): 0.2 µg/mL (≈ 0.251 µM)
- MIC (organism code SS): > 100 µg/mL
- MIC (organism code TT): > 100 µg/mL
- MIC (organism code UU): 0.78 µg/mL (≈ 0.98 µM)
- MIC (organism code VV): 0.02 µg/mL (≈ 0.0251 µM)
- MIC (organism code WW): 2 µg/mL (≈ 2.51 µM)
- MIC (organism code XX): 0.03 µg/mL (≈ 0.0377 µM)
- MIC (organism code YY): 0.03 µg/mL (≈ 0.0377 µM)
- MIC (organism code ZZ): 4 µg/mL (≈ 5.03 µM)
- MIC (organism code ZZA): 0.5 µg/mL (≈ 0.628 µM)

SMILES: CCC1OC(=O)C(C)C(=O)C(C)C(OC2OC(C)CC(N(C)C)C2O)C(C)(OCC=Cc2ccc3cc(OCCBr)ccc3c2)CC(C)C(=O)C(C)C2NC(=O)OC12C (stereo not shown) [Example 288, Compound of Formula (IX): L is CO, T is NH2, R is —CH2CH═CH-(6-(2-bromoethoxy)-2-naphthyl)]
- MIC (organism code AA): 0.1 µg/mL
- MIC (organism code BB): 0.2 µg/mL
- MIC (organism code CC): > 100 µg/mL
- MIC (organism code DD): 0.39 µg/mL
- MIC (organism code EE): 0.39 µg/mL
- MIC (organism code FF): 0.39 µg/mL
- MIC (organism code GG): 100 µg/mL
- MIC (organism code HH): 0.39 µg/mL
- MIC (organism code II): 0.39 µg/mL
- MIC (organism code JJ): 0.01 µg/mL
- MIC (organism code KK): 0.02 µg/mL
- MIC (organism code LL): 0.1 µg/mL
- MIC (organism code MM): 12.5 µg/mL
- MIC (organism code NN): 0.39 µg/mL
- MIC (organism code OO): 0.02 µg/mL
- MIC (organism code PP): 0.39 µg/mL
- MIC (organism code QQ): > 100 µg/mL
- MIC (organism code RR): 3.1 µg/mL
- MIC (organism code SS): > 100 µg/mL
- MIC (organism code TT): > 100 µg/mL
- MIC (organism code UU): 0.39 µg/mL
- MIC (organism code VV): 0.39 µg/mL
- MIC (organism code WW): 8 µg/mL
- MIC (organism code XX): 0.125 µg/mL
- MIC (organism code YY): 0.125 µg/mL
- MIC (organism code ZZ): 16 µg/mL
- MIC (organism code ZZA): 1 µg/mL
